Tests used:
Format in all cases: cell-based
[1] = tested on: organotypic cell cultures made up of three-dimensionally cultivated dermal papilla cells; assay: ATP content in hair follicle cell cultures (ATPlite-M assay); details: 24 hours, untreated = 100
From the text: (§1) L-Carnitine and L-carnitine tartrate were investigated with regard to their effects on ATP synthesis the excretion of the growth factors HGF (hepatocyte growth factors) and KGF (keratinocyte growth factor). ATP (adenosine triphosphate) is the universal storage form for chemical energy in cells. Release of the phosphate groups yields ADP and Pi (inorganic phosphate). This reaction is highly exergonic, i.e. energy is released. ATP is produced in the cellular oxidative breakdown of fats, carbohydrates, and proteins. It serves as an energy supply for biochemical syntheses (including melanin synthesis), for transport operations (active transport), and for mechanical work. These processes are endergonic, i.e. they proceed only when energy is delivered. HGF and KGF are important growth factors with which the dermal papilla controls hair growth and the hair cycle, to which pigment production in the hair follicle is linked in particular fashion. Melanin formation takes place exclusively in the anagen phase of the hair cycle. In addition, a variety of publications have discussed the effect of HGF on DNA synthesis, on growth, and on the differentiation of melanocytes.
The ATP determination was performed using the ATPlite™-M assay (Packard). The test principle of this assay is based on the fact that the luciferase of Photinus pyralis catalyzes a reaction in which D-luciferin is converted into oxyluciferin in the presence of ATP. This reaction causes the emission of green light, which can be measured with a luminometer. The emitted bioluminescent light is proportional to the quantity of ATP present.
The ATP activity determination was performed in organotypic cell cultures made up of three-dimensionally cultivated dermal papilla cells. The treatment with carnitine and carnitine tartrate occurred over 24 hours, against an untreated control.

[2] = tested on: HGF; assay: Relative excretion of HGF (ELISA) in organotypic hair follicle cell cultures; details: 72 hours, untreated = 100
From the text: as §1, with “In addition, a variety of publications have discussed the effect of HGF on DNA synthesis, on growth, and on the differentiation of melanocytes.” left out
(§2) The excretion of HGF and KGF can be quantified with the aid of a commercially obtainable ELISA kit. For this, organotypic hair follicle cell cultures made up of dermal papilla cells, hair follicle melanocytes, and outer root sheath keratinocytes are incubated for 72 hours with carnitine tartrate, and the concentration of HGF and KGF in the medium is determined.

[3] = tested on: KGF; assay: Relative excretion of KGF (ELISA) in organotypic hair follicle cell cultures; details: 72 hours, untreated = 100
From the text: as §1, with “In addition, a variety of publications have discussed the effect of HGF on DNA synthesis, on growth, and on the differentiation of melanocytes.” left out
as §2

[4] = tested on: ckit; assay: Differential gene expression by quantitative RT-PCR in organotypic hair follicle cell cultures: ckit; details: 48 h incubation, untreated control = 1
From the text: Ligands participating in melanogenesis, such as SCF or alpha-MSH (melanocyte stimulating hormone alpha), bind to a variety of receptors by means of which the corresponding signal is delivered into the interior of the cell. The receptor for SCF is ckit, the receptor for alpha-MSH is MCR-1 (melanocortin receptor 1). Those substances that bring about a change in the expression of MCR-1 and/or ckit can influence melanogenesis. In the case of an induction (upregulation or stimulation) of the gene expression of the corresponding receptors, a stimulation of melanogenesis is to be assumed. A determination of the extent of the change in gene expression after an application of such substances onto suitable cells/cell systems/tissue cultures can provide information regarding the efficacy of the active substance. Differential gene expression was determined by means of quantitative RT-PCR. After three-dimensional organotypic hair follicle cell cultures from dermal papilla cells had been produced on microcarriers, the latter were incubated for 48 h with dihydroquercetin in two different concentrations. In order to carry out the PCR, firstly the RNA was isolated from the organotypic cell cultures using the RNeasy Mini Kit of the Qiagen company, and it was transcribed into cDNA by reverse transcription. In the context of the subsequent PCR reaction, which was carried out using gene-specific primers for the respective genes and which serves to amplify the desired gene segments, formation of the PCR products was detected online by way of a fluorescence signal, which is proportional to the quantity of PCR product formed. The stronger the expression of a specific gene, the greater the quantity of PCR product formed, and the higher the fluorescence signal. The quantify the gene expression, the untreated control was set to equal 1, and expression of the genes to be determined was referred to it (X-times expression). […]

[5] = tested on: MCR1 (melanocortin receptor 1); assay: Differential gene expression by quantitative RT-PCR in organotypic hair follicle cell cultures: MCR1; details: 48 h incubation, untreated control = 1
From the text: Ligands participating in melanogenesis, such as SCF or alpha-MSH (melanocyte stimulating hormone alpha), bind to a variety of receptors by means of which the corresponding signal is delivered into the interior of the cell. The receptor for SCF is ckit, the receptor for alpha-MSH is MCR-1 (melanocortin receptor 1). Those substances that bring about a change in the expression of MCR-1 and/or ckit can influence melanogenesis. In the case of an induction (upregulation or stimulation) of the gene expression of the corresponding receptors, a stimulation of melanogenesis is to be assumed. A determination of the extent of the change in gene expression after an application of such substances onto suitable cells/cell systems/tissue cultures can provide information regarding the efficacy of the active substance. Differential gene expression was determined by means of quantitative RT-PCR. After three-dimensional organotypic hair follicle cell cultures from dermal papilla cells had been produced on microcarriers, the latter were incubated for 48 h with dihydroquercetin in two different concentrations. In order to carry out the PCR, firstly the RNA was isolated from the organotypic cell cultures using the RNeasy Mini Kit of the Qiagen company, and it was transcribed into cDNA by reverse transcription. In the context of the subsequent PCR reaction, which was carried out using gene-specific primers for the respective genes and which serves to amplify the desired gene segments, formation of the PCR products was detected online by way of a fluorescence signal, which is proportional to the quantity of PCR product formed. The stronger the expression of a specific gene, the greater the quantity of PCR product formed, and the higher the fluorescence signal. The quantify the gene expression, the untreated control was set to equal 1, and expression of the genes to be determined was referred to it (X-times expression). […] Values that are greater than or equal to 1.5 times the expression, or less than or equal to 0.7 times the expression, of the untreated control are classified as tending toward differential expression.

[6] = tested on: gp100; assay: Differential gene expression by quantitative RT-PCR in organotypic hair follicle cell cultures: gp100; details: 48 h incubation, untreated control = 1
From the text: Gp100 is a protein that occurs in the membrane of melanosomes and stabilizes it. Because more melanin is produced in the cells after the application of substances that positively influence melanogenesis, an increase also occurs in the number of melanosomes required for transport. A substance that induces the gene expression of gp100 is therefore a pigmentation-stimulating active substance. A determination of the extent of the change in gene expression after an application of such substances onto suitable cells/cell systems/tissue cultures can provide information regarding the efficacy of the active substance. Differential gene expression was determined by means of quantitative RT-PCR. After three-dimensional organotypic hair follicle cell cultures from dermal papilla cells had been produced on microcarriers, the latter were incubated for 48 h with dihydroquercetin in two different concentrations. In order to carry out the PCR, firstly the RNA was isolated from the organotypic cell cultures using the RNeasy Mini Kit of the Qiagen company, and it was transcribed into cDNA by reverse transcription. In the context of the subsequent PCR reaction, which was carried out using gene-specific primers for the respective genes and which serves to amplify the desired gene segments, formation of the PCR products was detected online by way of a fluorescence signal, which is proportional to the quantity of PCR product formed. The stronger the expression of a specific gene, the greater the quantity of PCR product formed, and the higher the fluorescence signal. The quantify the gene expression, the untreated control was set to equal 1, and expression of the genes to be determined was referred to it (X-times expression). […] Values that are greater than or equal to 1.5 times the expression, or less than or equal to 0.7 times the expression, of the untreated control are classified as tending toward differential expression.

[7] = tested on: three-dimensional organotypic hair follicle cell cultures made up of dermal papilla cells, hair follicle melanocytes, and outer root sheath keratinocytes; assay: Melanin content in hair follicle equivalents
From the text: Melanin is a dye that is produced and stored in the melanosomes of melanocytes. Melanin gives hair its actual color, the color being produced by a mixture of two types of melanin, eumelanin and pheomelanin. Melanogenesis is a complicated synthesis process regulated in many ways. Firstly, tyrosine is converted by the enzyme tyrosinase into L-dihydroxyphenylalanine (L-DOPA), and then via multiple intermediate steps into the various melanin pigments. An active substance that positively influences melanogenesis and results in an elevated melanin content in the hair follicle melanocytes is particularly suitable for influencing the natural pigmentation process of skin and/or skin appendages, preventing hair graying, and/or stimulating pigmentation.
To investigate the melanin content, three-dimensional organotypic hair follicle cell cultures made up of dermal papilla cells, hair follicle melanocytes, and outer root sheath keratinocytes were treated for 7 days with dihydroquercetin (10 μM and 100 μM). Untreated cell cultures served as controls. After 4 and 7 days the hair follicle equivalents were homogenized and the melanin was extracted for 45 minutes using NaOH (1M)+10% DMSO at 100° C. Aliquots of the samples were then transferred into a 96-well plate, and extinction at 492 nm was measured. The increase in melanin content from day 0 to day 7 was evaluated by referring all the values to the untreated control at day 7 (=100%).

[8] = 100 μM, listed as dihydroquercetin

C[N+](C)(C)C[C@H](O)CC(=O)[O-].O=C(O)C(O)C(O)C(=O)O [Carnitine tartrate, L-carnitine tartrate]
ATP (%) M ([1]; 0.01%, listed as carnitine tartrate, tartrate): increase the ATP content in the treated cultures significantly
ATP (%) M ([1]; 0.01%, tartrate): 195%
ATP (%) M ([1]; 0.05%): 102%
HGF (%) M, relative excretion ([2]; 0.005%): 141%
KGF (%) M, relative excretion ([3]; 0.005%): 123%

O=C1c2c(O)cc(O)cc2OC(c2ccc(O)c(O)c2)C1O (stereo not shown) [Dihydroquercetin, 3,3′,4′,5,7-pentahydroxyflavanone]
ckit expression M (X-times expression) ([4]; 10 μM): 1.32
ckit expression M (X-times expression) ([4]; 100 μM): 3.55
ckit expression M (X-times expression) [4, 8]: induced
MCR1 expression M (X-times expression) ([5]; 10 μM): 2.56
MCR1 expression M (X-times expression) ([5]; 10 μM, listed as dihydroquercetin): significantly differentially expressed
MCR1 expression M (X-times expression) ([5]; 100 μM): 5.17
MCR1 expression M (X-times expression) [5, 8]: induced
gp100 expression M (X-times expression) ([6]; 10 μM): 0.89
gp100 expression M (X-times expression) ([6]; 100 μM): 3.48
gp100 expression M (X-times expression) [6, 8]: induced
Melanin content (%) M ([7]; 10 μM, d 4): 100%
Melanin content (%) M ([7]; 10 μM, d 7, untreated d 7 = 181): 254%
Melanin content (%) M ([7]; 100 μM, d 4): 100%
Melanin content (%) M ([7]; 100 μM, d 7, untreated d 7 = 181): 161%

C[N+](C)(C)CC(O)CC(=O)[O-] (stereo not shown) [Carnitine, 3-hydroxy-4-(trimethylammonium)butyric acid betaine]
ATP (%) M ([1]; 0.05%): 212%
ATP (%) M ([1]; 0.05%, listed as carnitine): increase the ATP content in the treated cultures significantly
ATP (%) M ([1]; 0.1%): 160%
ATP (%) M ([1]; 0.1%, listed as carnitine): increase the ATP content in the treated cultures significantly
HGF (%) M, relative excretion ([2]; 0.01%): 105%
KGF (%) M, relative excretion ([3]; 0.01%): 120%

Reference: US20120115944A1, “USE OF CARNITINE AND DIHYDROQUERCITIN TO POSITIVELY INFLUENCE THE NATURAL PIGMENTATION PROCESS” (Henkel AG & Co., KGaA, priority 2009, published 2012)
